Drawing on ChEMBL document CHEMBL5729489, “Naphthyridinone derivatives and their use in the treatment of arrhythmia” (2022), this text covers IC50 for 2 compounds.

In general, IC50 refers to the concentration that inhibits the measured activity by half.

For the test, the target named is T1, Kir3.1/Kir3.4 (Homo sapiens, UniProt P48544+P48549).
T1 sequence (P48549 whole entry): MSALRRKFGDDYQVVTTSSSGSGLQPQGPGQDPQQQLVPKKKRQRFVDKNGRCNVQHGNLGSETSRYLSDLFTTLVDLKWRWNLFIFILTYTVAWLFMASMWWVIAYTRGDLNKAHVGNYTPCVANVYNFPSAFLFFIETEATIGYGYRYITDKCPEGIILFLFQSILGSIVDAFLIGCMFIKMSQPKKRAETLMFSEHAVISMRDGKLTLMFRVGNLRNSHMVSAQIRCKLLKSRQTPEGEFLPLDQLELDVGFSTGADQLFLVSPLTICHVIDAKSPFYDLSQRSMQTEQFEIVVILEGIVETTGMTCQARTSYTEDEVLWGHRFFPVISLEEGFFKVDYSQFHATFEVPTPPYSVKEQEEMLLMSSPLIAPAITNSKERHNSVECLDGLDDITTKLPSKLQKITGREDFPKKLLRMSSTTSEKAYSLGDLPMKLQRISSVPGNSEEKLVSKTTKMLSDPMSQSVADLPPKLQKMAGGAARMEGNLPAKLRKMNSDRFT
T1 sequence (P48544 whole entry): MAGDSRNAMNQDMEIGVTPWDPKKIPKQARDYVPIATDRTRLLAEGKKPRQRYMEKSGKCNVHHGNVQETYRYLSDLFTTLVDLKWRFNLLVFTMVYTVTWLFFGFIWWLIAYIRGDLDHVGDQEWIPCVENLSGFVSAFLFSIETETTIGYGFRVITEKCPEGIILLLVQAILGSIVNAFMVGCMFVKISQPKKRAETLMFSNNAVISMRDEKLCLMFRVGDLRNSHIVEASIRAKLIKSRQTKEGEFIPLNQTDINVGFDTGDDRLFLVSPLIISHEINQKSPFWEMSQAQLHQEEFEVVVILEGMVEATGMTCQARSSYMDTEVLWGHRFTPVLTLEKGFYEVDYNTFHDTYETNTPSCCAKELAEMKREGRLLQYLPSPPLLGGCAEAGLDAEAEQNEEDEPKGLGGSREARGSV
The test is described as follows: IonWorks Quattro system: Quattro is controlled using IonWorks v2 software to perform the following steps:a. Add 3.5 ul cells plus 3.5 ul external buffer to wells of Quattro Patch Plateb. Circulate amphotericin B and internal buffer onto cellsc. Apply the following voltage protocol: Pulse 1: 15 mV for 300 milliseconds (ms), followed by Pulse 2: −120 mV for 400 ms, then Pulse 3: −15 mV for 400 ms, and finally Pulse 4: −120 mV to 40 mV over 500 ms (this is a voltage ramp).d. Measure magnitude of inward potassium current at time point between 1200-1220 ms from start of Pulse 1 (i.e. during the voltage ramp phase).e. Add 3.5 ul of diluted compounds (or DMSO) to wells and repeat steps c-d (final compound concentrations are 50 uM to 0.1 uM, for potent compounds 0.5 uM to 0.01 uM and each concentration is tested in quadruplicate—i.e. in 4 separate wells).f. The difference between current magnitude pre vs. post-compound gives a measure of GIRK1/4 inhibition.7. Data analysis:IC50 values are calculated by plotting the percentage of current inhibition (normalized to the DMSO-only control) as a function of compound concentration using standard data analysis software.

Turning to `CS(=O)(=O)NCCOc1ncc(Cl)c2c1c(=O)cc(CO)n2-c1c(Cl)cccc1Cl`, the IC50 is 99 nM. The result for `O=c1cc(CO)n(-c2c(Cl)cccc2Cl)c2c(Cl)cnc(OCC(CO)CO)c12` reads 351 nM.
